pIC50, pKd: −log10 of the molar value. Like-named read-outs stand apart in the source and are kept apart here.
Columns and labels:
[1] = target: Human Serum Albumin (HSA) (Homo sapiens, UniProt P02768); test: ThermoFluor thermal shift assay with human serum albumin
Procedure: (§1) 1× reaction mixture of about 50 μg/mL human serum albumin, about 4 μM 1,8-ANS, about 150 mM NaCl, about 25 mM PIPES, pH 7.2, and about 0.002% Tween®-20 was prepared.
(§2) To prevent evaporation, about 1 μL of silicone oil was added to the plate using multichannel pipettors.
The plates were loaded onto a ThermoFluor® device and heated from about 25° C. to about 95° C. at a ramp-rate of about 1° C. per minute. Fluorescence was measured by continuous illumination with UV light (Hamamatsu LC6) via fiber optic and filtered through a band-pass filter of about 390±10 nm; >6 OD cutoff. Fluorescence emissions were detected by measuring light intensity using a CCD camera (Sensys, Roper Scientific) filtered to detect about 500±25 nm; >6 OD cutoff. This allows for the entire plate to be simultaneously monitored and each sample to be independently monitored. One or more images were collected at an interval of every about 0.5° C. to about 1° C. The sum of the pixel intensity at a given area of the plate was recorded vs. temperature.
(§3) The values of Tm, ΔH, yF,Tm, mF, yU,Tm and mU were calculated for each sample according to Equation 9. Further, the value of Tm over the compound concentration was used to calculate the binding constant (KD) using Equation 10b. A shift in the denaturation curve of albumin indicates whether the compound binds to albumin, and the value of KD indicates the binding strength of compounds to albumin. A shift of the fluorescence signal indicates the specificity of compounds to albumin, and the value of IC50 indicates the binding strength to the site I (Equation 11).
(§4) The compounds and 1× reaction mixture were dispensed and measured for the fluorescence value using the plate-based reader Tecan® Safire II. Then the plate was heated in a ThermoFluor® system and measured for fluorescence value and the thermal shift value. The fluorescence values were measured twice by both plate reader and ThermoFluor®. The fluorescence value obtained from ThermoFluor® was used for qualitative assessment whereas those from the plate reader was used for quantitative assessment. The value of IC50 was determined by the fluorescence obtained from the plate reader and was fit using Equation 11 described above. The value of KD was determined by the readings from ThermoFluor® and was fit using Equation 10b described above.

[2] = target: Human Serum Albumin (HSA) site I (Homo sapiens, UniProt P02768); test: 1,8-ANS site-specific probe displacement (fluorescence) from HSA site I; details: for % Displacement: percent displacement of the site-specific probe 1,8-ANS at the second highest concentration of test ligand; for Fluorescent Signal: initial 1,8-ANS fluorescence as % of fluorescence without compound
Excerpt: In addition to the thermal shift assay, the assay test plate may be utilized in a separate fluorescence measurement using a plate-based reader that is compatible with any relevant wavelengths. The preferred plate-based reader is Tecan Satire II. The displacement of site-specific probe such as 1,8-ANS from albumin site 1 by test ligand may cause a decrease in observed fluorescence that may be fit to Equation 11 to determine the value of IC50.
Additionally, the percent displacement may be determined by (y−yhigh), divided by the difference of low (y0) and high endpoints (yhigh), wherein y is determined at the second highest concentration.
as §1, §2, §3, §4

[3] = target: T1, Bovine Serum Albumin (BSA) (Bos taurus, UniProt P02769); test: ThermoFluor thermal shift assay with bovine serum albumin; format: binding
T1 construct: The above albumins were prepared using method IV of Cohn et al. (J. Am. Chem. Soc. 69: 1753-1761, 1947) and purified with 1× crystallization; purchased Sigma A-7638
Excerpt: (§5) To evaluate the bioavailability of a compound in various species, the compound's affinity and specificity to albumins from human, bovine, rat, and mouse were examined. […] The resulting 1× reaction mixture comprising human serum albumin, bovine serum albumin, rat serum albumin, or mouse serum albumin was used with a panel of compounds in the binding assay.

[4] = target: T2, Rat Serum Albumin (Rattus norvegicus, UniProt P02770); test: ThermoFluor thermal shift assay with rat serum albumin; format: binding
T2 construct: The above albumins were prepared using method IV of Cohn et al. (J. Am. Chem. Soc. 69: 1753-1761, 1947) and purified with 1× crystallization; purchased Sigma A-6414
Excerpt: as §5

[5] = target: T3, Mouse Serum Albumin (Mus musculus, UniProt P07724); test: ThermoFluor thermal shift assay with mouse serum albumin; format: binding
T3 construct: The above albumins were prepared using method IV of Cohn et al. (J. Am. Chem. Soc. 69: 1753-1761, 1947) and purified with 1× crystallization; purchased Sigma A-3559
Excerpt: as §5

[6] = target: HSA (Homo sapiens, UniProt P02768); details: binding site on HSA from previous reports; cited from earlier work
[7] = Human Albumin (KD), Example 4, Table 3
[8] = classified from KD versus IC50 and % displacement of 1,8-ANS
[9] = HSA - KD, Example 3, Table 2, ThermoFluor, Equation 10b

T1 sequence (P02769 25-607): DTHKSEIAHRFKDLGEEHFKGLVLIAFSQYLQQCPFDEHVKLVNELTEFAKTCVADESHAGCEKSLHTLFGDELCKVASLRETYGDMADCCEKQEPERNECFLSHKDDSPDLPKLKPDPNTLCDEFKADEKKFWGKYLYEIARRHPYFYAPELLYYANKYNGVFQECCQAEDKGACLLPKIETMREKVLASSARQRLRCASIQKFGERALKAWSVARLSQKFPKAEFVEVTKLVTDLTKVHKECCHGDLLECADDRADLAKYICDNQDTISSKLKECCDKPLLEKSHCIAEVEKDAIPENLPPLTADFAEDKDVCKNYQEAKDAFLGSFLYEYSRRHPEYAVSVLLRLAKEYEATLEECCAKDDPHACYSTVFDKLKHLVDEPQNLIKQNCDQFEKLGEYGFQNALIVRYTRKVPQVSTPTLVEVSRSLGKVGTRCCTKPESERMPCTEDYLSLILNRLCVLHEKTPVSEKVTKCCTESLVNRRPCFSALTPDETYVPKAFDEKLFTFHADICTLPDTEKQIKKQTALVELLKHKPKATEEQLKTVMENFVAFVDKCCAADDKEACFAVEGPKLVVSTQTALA
T3 sequence (P07724 25-608): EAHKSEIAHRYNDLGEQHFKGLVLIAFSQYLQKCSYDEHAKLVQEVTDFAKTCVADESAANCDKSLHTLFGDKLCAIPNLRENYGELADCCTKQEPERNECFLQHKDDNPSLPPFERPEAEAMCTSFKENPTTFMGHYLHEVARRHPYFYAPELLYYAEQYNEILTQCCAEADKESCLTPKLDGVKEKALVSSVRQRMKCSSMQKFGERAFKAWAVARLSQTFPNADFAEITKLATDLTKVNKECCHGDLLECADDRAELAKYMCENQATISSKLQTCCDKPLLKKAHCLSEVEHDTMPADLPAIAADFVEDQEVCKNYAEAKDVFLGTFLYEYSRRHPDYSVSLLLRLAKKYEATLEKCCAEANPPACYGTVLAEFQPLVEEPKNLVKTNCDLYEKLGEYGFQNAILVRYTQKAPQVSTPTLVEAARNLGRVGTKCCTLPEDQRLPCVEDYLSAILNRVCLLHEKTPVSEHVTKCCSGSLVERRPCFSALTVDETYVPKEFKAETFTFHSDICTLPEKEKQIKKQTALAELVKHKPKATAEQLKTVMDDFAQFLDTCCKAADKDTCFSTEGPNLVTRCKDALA
Human Serum Albumin (HSA), sequence (P02768 25-609): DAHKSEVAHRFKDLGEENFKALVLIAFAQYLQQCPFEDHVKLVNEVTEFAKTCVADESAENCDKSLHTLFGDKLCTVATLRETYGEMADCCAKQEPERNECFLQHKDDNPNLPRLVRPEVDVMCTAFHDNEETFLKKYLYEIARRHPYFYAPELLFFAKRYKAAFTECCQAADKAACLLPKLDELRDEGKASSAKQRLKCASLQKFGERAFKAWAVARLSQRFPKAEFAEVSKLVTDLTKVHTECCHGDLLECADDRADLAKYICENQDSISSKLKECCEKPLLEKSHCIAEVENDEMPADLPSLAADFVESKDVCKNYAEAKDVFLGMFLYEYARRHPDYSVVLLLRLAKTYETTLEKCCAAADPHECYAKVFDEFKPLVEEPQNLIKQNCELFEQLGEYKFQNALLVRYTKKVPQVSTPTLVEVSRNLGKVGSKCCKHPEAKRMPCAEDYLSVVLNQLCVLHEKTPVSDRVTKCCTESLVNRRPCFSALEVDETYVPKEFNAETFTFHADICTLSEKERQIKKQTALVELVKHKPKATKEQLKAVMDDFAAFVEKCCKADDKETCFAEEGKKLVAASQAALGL
HSA, sequence (P02768 25-609): as above
Human Serum Albumin (HSA) site I, sequence (P02768 25-609): as above
T2 sequence (P02770 25-608): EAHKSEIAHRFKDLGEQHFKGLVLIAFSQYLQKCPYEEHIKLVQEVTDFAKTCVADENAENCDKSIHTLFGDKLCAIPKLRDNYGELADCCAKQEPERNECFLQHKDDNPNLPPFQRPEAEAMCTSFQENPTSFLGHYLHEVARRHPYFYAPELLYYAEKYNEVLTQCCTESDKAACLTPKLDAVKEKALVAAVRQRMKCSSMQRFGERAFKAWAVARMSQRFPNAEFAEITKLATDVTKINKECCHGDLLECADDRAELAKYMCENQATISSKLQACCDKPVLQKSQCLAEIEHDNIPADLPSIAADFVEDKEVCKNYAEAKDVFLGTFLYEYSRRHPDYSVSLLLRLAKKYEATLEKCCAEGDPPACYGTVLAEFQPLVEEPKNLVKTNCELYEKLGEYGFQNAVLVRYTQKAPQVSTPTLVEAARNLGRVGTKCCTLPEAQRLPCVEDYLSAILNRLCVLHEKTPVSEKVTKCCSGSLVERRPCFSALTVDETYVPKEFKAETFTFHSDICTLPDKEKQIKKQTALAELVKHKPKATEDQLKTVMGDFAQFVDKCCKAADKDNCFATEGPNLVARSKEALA

C=CC1=C(C)/C(=C/c2[nH]c(Cc3[nH]c(/C=C4\NC(=O)C(C)=C4C=C)c(C)c3CCC(=O)O)c(CCC(=O)O)c2C)NC1=O [Bilirubin, bilirubin]
pKd [1, 7]: 4.25 | % Displacement [2]: (11) % | pKd ([3]; Example 4, Table 3): 4.07 | pKd ([4]; Example 4, Table 3): < 3.92 | pKd ([5]; Example 4, Table 3): < 3.92

C[C@]12CCC(=O)C=C1C=C[C@@H]1[C@@H]2CC[C@@]2(C)[C@H]1CC[C@@]2(O)CCC(=O)O [Canrenoate, canrenoate]
pKd [1, 7]: 4.40 | Type of HSA Binding Interaction [1, 8]: Type 4 | % Displacement [2]: (33) % | pKd ([3]; Example 4, Table 3): < 4.20 | pKd ([4]; Example 4, Table 3): < 4.20 | pKd ([5]; Example 4, Table 3): < 4.20 | Reported Binding Site [6]: Site 1

CC(C(=O)O)c1ccc2c(c1)[nH]c1ccc(Cl)cc12 (stereo not shown) [Carprofen, carprofen]
pKd [1, 9]: 5.68 | pKd [1, 7]: 5.68 | Type of HSA Binding Interaction [1, 8]: Type 3 | pIC50 [2]: 5.08 | % Displacement [2]: (87) % | pKd ([3]; Example 4, Table 3): 5.54 | pKd ([4]; Example 4, Table 3): 5.82 | pKd ([5]; Example 4, Table 3): 5.96 | Reported Binding Site [6]: Site 2

NS(=O)(=O)c1cc2c(cc1Cl)N=CNS2(=O)=O [Chlorothiazide, chlorothiazide]
pKd [1, 7]: < 4.20 | Type of HSA Binding Interaction [1, 8]: Type 4 | % Displacement [2]: (12) % | pKd ([3]; Example 4, Table 3): < 4.20 | pKd ([4]; Example 4, Table 3): < 4.20 | pKd ([5]; Example 4, Table 3): < 4.20 | Reported Binding Site [6]: Site 2

CCCNC(=O)NS(=O)(=O)c1ccc(Cl)cc1 [Chlorpropamide, chlorpropamide]
pKd [1, 9]: 4.09 | pKd [1, 7]: 4.46 | Type of HSA Binding Interaction [1, 8]: Type 4 | % Displacement [2]: (20) % | pKd ([3]; Example 4, Table 3): 4.38 | pKd ([4]; Example 4, Table 3): 4.53 | pKd ([5]; Example 4, Table 3): 3.96 | Reported Binding Site [6]: Site 1

CCOC(=O)C(C)(C)Oc1ccc(Cl)cc1 [Clofibrate, clofibrate]
pKd [1, 7]: < 4.20 | % Displacement [2]: (10) % | pKd ([3]; Example 4, Table 3): < 4.20 | pKd ([4]; Example 4, Table 3): < 4.20 | pKd ([5]; Example 4, Table 3): < 4.20

CC(C(=O)O)c1ccc(-c2ccccc2)c(F)c1 (stereo not shown) [Flurbiprofen, flurbiprofen]
pKd [1, 9]: 5.68 | pKd [1, 7]: 5.68 | pKd ([1]; KD, Example 2, Table 1, from Tm over compound concentration (Equation 10b)): 5.57 | Type of HSA Binding Interaction [1, 8]: Type 3 | HSA Tm ([1]; compound 0.244 μM): 74.4 °C | HSA Tm ([1]; compound 0.488 μM): 74.1 °C | HSA Tm ([1]; compound 0.977 μM): 74.3 °C | HSA Tm ([1]; compound 1.95 μM): 74.4 °C | HSA Tm ([1]; compound 3.91 μM): 75.0 °C | HSA Tm ([1]; compound 7.81 μM): 75.1 °C | HSA Tm ([1]; compound 15.6 μM): 75.7 °C | HSA Tm ([1]; compound 31.3 μM): 76.1 °C | HSA Tm ([1]; compound 62.5 μM): 76.8 °C | HSA Tm ([1]; compound 125 μM): 78.2 °C | HSA Tm ([1]; compound 250 μM): 80.2 °C | pIC50 [2]: 3.81 | Binding to site I of albumin as indicated by 1,8-ANS fluorescence ([2]; Example 2, dose-dependent change of initial fluorescence): does not bind to site I | Fluorescent Signal ([2]; compound 0.244 μM): 110% | Fluorescent Signal ([2]; compound 0.488 μM): 105% | Fluorescent Signal ([2]; compound 0.977 μM): 102% | Fluorescent Signal ([2]; compound 1.95 μM): 104% | Fluorescent Signal ([2]; compound 3.91 μM): 118% | Fluorescent Signal ([2]; compound 7.81 μM): 106% | Fluorescent Signal ([2]; compound 15.6 μM): 111% | Fluorescent Signal ([2]; compound 31.3 μM): 108% | Fluorescent Signal ([2]; compound 62.5 μM): 101% | Fluorescent Signal ([2]; compound 125 μM): 109% | Fluorescent Signal ([2]; compound 250 μM): 105% | % Displacement [2]: (47) % | pKd ([3]; Example 4, Table 3): 5.73 | pKd ([4]; Example 4, Table 3): 5.53 | pKd ([5]; Example 4, Table 3): 5.42 | Reported Binding Site [6]: Site 2

CCC(Cc1c(I)cc(I)c(N)c1I)C(=O)O (stereo not shown) [Iodopanoate, iodopanoate]
pKd [1]: 6.20 | Type of HSA Binding Interaction [1, 8]: Type 3 | pIC50 [2]: 5.13 | % Displacement [2]: (83) % | pKd ([3]; Example 4, Table 3): 5.89 | pKd ([4]; Example 4, Table 3): 6.02 | pKd ([5]; Example 4, Table 3): 6.12 | Reported Binding Site [6]: Site 2

CCC(Cc1c(I)cc(I)c(O)c1I)C(=O)O (stereo not shown) [Iophenoxate, iophenoxate]
pKd [1]: 7.36 | Type of HSA Binding Interaction [1, 8]: Type 1 | pIC50 [2]: 6.15 | % Displacement [2]: (129) % | pKd ([3]; Example 4, Table 3): 7.18 | pKd ([4]; Example 4, Table 3): 7.32 | pKd ([5]; Example 4, Table 3): 7.30 | Reported Binding Site [6]: Site 1

N[C@@H](Cc1c[nH]c2ccccc12)C(=O)O [L-Tryptophan, L-tryptophan]
Type of HSA Binding Interaction [1]: Type 5 | pKd ([1]; Human Albumin (KD)): < 4.20 | pKd [3]: < 4.20 | pKd [4]: < 4.20 | pKd [5]: < 4.20 | Reported Binding Site [6]: Multiple sites

c1ccc2c(c1)[nH]c1cnccc12 [Norharmane, norharmane]
Type of HSA Binding Interaction [1]: Type 5 | pKd [1, 9]: 4.75 | pKd [1, 7]: 4.75 | pKd ([3]; Example 4, Table 3): < 4.20 | pKd ([4]; Example 4, Table 3): < 4.20 | pKd ([5]; Example 4, Table 3): < 4.20 | Reported Binding Site [6]: Site 2

O=c1c(O)c(-c2ccc(O)c(O)c2)oc2cc(O)cc(O)c12 [Quercetin, quercetin]
pKd [1, 9]: 5.10 | pKd [1, 7]: < 4.20 | Type of HSA Binding Interaction [1, 8]: Type 1 | pIC50 [2]: 4.60 | % Displacement [2]: (51) % | % Displacement ([2]; listed as quercetin): about 51% | pKd ([4]; Example 4, Table 3): < 4.20 | pKd ([5]; Example 4, Table 3): < 4.20 | Reported Binding Site [6]: Site 1

COc1cc(NS(=O)(=O)c2ccc(N)cc2)nc(OC)n1 [Sulfadimethoxine, sulfadimethoxine]
pKd [1, 7]: < 4.20 | Type of HSA Binding Interaction [1, 8]: Type 1 | pIC50 [2]: 4.02 | % Displacement [2]: (71) % | pKd ([3]; Example 4, Table 3): < 4.20 | pKd ([4]; Example 4, Table 3): 5.03 | pKd ([5]; Example 4, Table 3): 4.16 | Reported Binding Site [6]: Site 1

Nc1ccc(S(=O)(=O)Nc2nccs2)cc1 [Sulfathiazole, sulfathiazole]
pKd [1, 7]: < 4.20 | Type of HSA Binding Interaction [1, 8]: Type 4 | % Displacement [2]: (40) % | pKd ([3]; Example 4, Table 3): < 4.20 | pKd ([4]; Example 4, Table 3): < 4.20 | pKd ([5]; Example 4, Table 3): < 4.20 | Reported Binding Site [6]: Site 1

CN1C(C(=O)Nc2ccccn2)=C(O)c2sccc2S1(=O)=O [Tenoxicam, tenoxicam]
pKd [1, 9]: 4.89 | pKd [1, 7]: 4.89 | pIC50 [2]: 4.45 | % Displacement [2]: (84) % | pKd ([3]; Example 4, Table 3): < 4.20 | pKd ([4]; Example 4, Table 3): 4.47 | pKd ([5]; Example 4, Table 3): < 4.20

CCCC(CCC)C(=O)O [Valproate, valproate]
pKd [1, 7]: < 4.20 | % Displacement [2]: (31) % | pKd ([3]; Example 4, Table 3): < 4.20 | pKd ([4]; Example 4, Table 3): < 4.20 | pKd ([5]; Example 4, Table 3): < 4.20

From US8476081B2, “Assay for evaluating affinity and specificity of ligand-albumin binding” (Janssen Pharmaceutica NV, priority 2009, dated 2013)
